This test addresses Ribonucleotide reductase (Homo sapiens, UniProt P23921+Q7LG56). The test is described as follows: Human RNR Inhibition Effect: The inhibitory activity against the ribonucleotide reduction reaction (hereinafter referred to as RNR reaction) of the test compound was determined by measuring the formation of deoxycytidine diphosphate (hereinafter referred to as dCDP) from cytidine diphosphate (hereinafter referred to as CDP) by the following method.Human M1 subunit and human M2 subunit (mutant ….
Chain of Ribonucleotide reductase (P23921 whole entry, looked up): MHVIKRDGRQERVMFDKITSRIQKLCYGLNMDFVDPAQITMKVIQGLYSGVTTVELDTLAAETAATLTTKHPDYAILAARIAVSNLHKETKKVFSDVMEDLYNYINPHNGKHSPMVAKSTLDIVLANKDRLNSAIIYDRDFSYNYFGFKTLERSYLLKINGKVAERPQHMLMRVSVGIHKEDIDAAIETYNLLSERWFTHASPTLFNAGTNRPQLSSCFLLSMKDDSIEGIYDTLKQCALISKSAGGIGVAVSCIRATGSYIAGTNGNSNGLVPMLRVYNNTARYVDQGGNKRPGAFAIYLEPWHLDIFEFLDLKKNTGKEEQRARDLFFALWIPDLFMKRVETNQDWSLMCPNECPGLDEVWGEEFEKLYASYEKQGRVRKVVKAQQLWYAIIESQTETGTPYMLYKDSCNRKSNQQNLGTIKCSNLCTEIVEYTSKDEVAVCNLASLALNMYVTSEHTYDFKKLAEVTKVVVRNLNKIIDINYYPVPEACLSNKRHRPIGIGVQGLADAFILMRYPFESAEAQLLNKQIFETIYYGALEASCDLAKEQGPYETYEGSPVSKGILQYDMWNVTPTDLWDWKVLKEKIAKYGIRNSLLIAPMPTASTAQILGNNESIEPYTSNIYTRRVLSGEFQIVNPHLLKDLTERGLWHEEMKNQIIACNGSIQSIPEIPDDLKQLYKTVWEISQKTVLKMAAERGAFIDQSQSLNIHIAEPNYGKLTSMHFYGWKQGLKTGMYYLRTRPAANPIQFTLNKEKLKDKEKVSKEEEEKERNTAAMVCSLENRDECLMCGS
Chain of Ribonucleotide reductase (Q7LG56 whole entry, looked up): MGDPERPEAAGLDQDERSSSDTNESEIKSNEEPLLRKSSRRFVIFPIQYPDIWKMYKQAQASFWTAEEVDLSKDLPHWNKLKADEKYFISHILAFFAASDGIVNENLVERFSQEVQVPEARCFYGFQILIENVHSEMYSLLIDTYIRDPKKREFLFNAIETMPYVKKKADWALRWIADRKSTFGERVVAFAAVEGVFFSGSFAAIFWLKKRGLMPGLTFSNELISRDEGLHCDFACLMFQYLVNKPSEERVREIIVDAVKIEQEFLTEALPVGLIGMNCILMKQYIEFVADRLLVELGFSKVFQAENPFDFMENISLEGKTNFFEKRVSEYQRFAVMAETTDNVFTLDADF
Regarding `Cc1c(C(F)(F)F)ccc(F)c1[C@@H](C)[C@H](NS(=O)(=O)c1ccc(Cl)cc1C(N)=O)c1n[nH]c(=O)o1`, the IC50 came out at 550 nM.
Next, `Cc1ccc(F)c([C@@H](C)[C@H](NS(=O)(=O)c2cnc(Cl)cc2C(N)=O)c2n[nH]c(=O)o2)c1C`: 130 nM; `COc1cc(Cl)ccc1S(=O)(=O)N[C@H](c1n[nH]c(=O)o1)[C@H](C)c1c(F)ccc(-c2cnn(C)c2)c1C`: 90 nM.
Regarding `COC(=O)c1cc(Cl)ccc1S(=O)(=O)N[C@H](c1n[nH]c(=O)o1)[C@H](C)c1c(F)ccc(C)c1C`, the IC50 is 410 nM.
For the compound `COc1cc(Cl)ccc1S(=O)(=O)N[C@H](c1n[nH]c(=O)o1)[C@H](C)c1c(F)ccc(-c2cc[nH]n2)c1C`, the IC50 came out at 290 nM.
With `Cc1c(-c2cnn(C)c2)ccc(F)c1[C@@H](C)[C@H](NS(=O)(=O)c1ccc(Cl)cc1C(N)=O)c1n[nH]c(=O)o1` the figure was 170 nM; with `Cc1ccc(F)c([C@@H](C)[C@H](NS(=O)(=O)c2ccc(Cl)c(C(=O)N(C)C)n2)c2n[nH]c(=O)o2)c1C`, 80 nM.
In the case of `Cc1ccc(F)c([C@@H](C)[C@H](NS(=O)(=O)c2ccc(Cl)nc2C(N)=O)c2n[nH]c(=O)o2)c1C`, the IC50 was found to be 190 nM.
In turn, `CCc1ccc(F)c([C@@H](C)[C@H](NS(=O)(=O)c2ccc(Cl)cc2C(N)=O)c2n[nH]c(=O)o2)c1C` returned an IC50 of 180 nM.
For the compound `Cc1c(Br)ccc(F)c1[C@@H](C)[C@H](NS(=O)(=O)c1ccc(C(F)(F)F)cc1C(N)=O)c1n[nH]c(=O)o1`, the half-maximal inhibitory concentration (IC50) was determined as 200 nM.
With `COC(=O)c1c(F)ccc(S(=O)(=O)N[C@H](c2n[nH]c(=O)o2)[C@H](C)c2c(F)ccc(C)c2C)c1F` the figure was 170 nM; with `COc1cc(S(=O)(=O)N[C@H](c2n[nH]c(=O)o2)[C@H](C)c2c(F)ccc(C)c2C)c(C(N)=O)cc1Cl`, 100 nM.
As to `COc1cc(Cl)ccc1S(=O)(=O)N[C@H](c1n[nH]c(=O)o1)[C@H](C)c1c(F)ccc(-c2cccnc2)c1C`, the IC50 amounted to 340 nM.
`COc1cc(Cl)ccc1S(=O)(=O)N[C@H](c1n[nH]c(=O)o1)[C@H](C)c1c(C)c(C)cc(F)c1F` gave an IC50 of 160 nM.
`Cc1cc(F)c(F)c([C@@H](C)[C@H](NS(=O)(=O)c2ccc(Cl)cc2C(N)=O)c2n[nH]c(=O)o2)c1C` displayed an IC50 of 140 nM.
For `Cc1ccc(F)c([C@@H](C)[C@H](NS(=O)(=O)c2ccc3c(c2)C(C)(O)CCO3)c2n[nH]c(=O)o2)c1C` (stereo partly drawn), the IC50 is 180 nM.
The compound `C[C@H](c1cccc2c1Cc1ccccc1-2)[C@H](NS(=O)(=O)c1ccc(Br)cn1)c1n[nH]c(=O)o1` displayed an IC50 of 800 nM.
In the case of `Cc1ccc(F)c([C@@H](C)[C@H](NS(=O)(=O)c2ccc(Cl)cc2C(=O)NO)c2n[nH]c(=O)o2)c1C`, 70 nM corresponded to half-maximal inhibition (IC50).
`COc1cc(Br)ccc1S(=O)(=O)N[C@H](c1n[nH]c(=O)o1)[C@H](C)c1cccc2c1CCC2` came in with an IC50 of 590 nM.
With `COc1cc(Cl)ccc1S(=O)(=O)N[C@H](c1n[nH]c(=O)o1)[C@H](C)c1c(F)ccc(-c2ccc(Cl)cc2)c1C` the figure was 490 nM; with `COc1cc(C#N)ccc1S(=O)(=O)N[C@H](c1n[nH]c(=O)o1)[C@H](C)c1c(F)ccc(C)c1C`, 90 nM.
`CCc1cccc([C@@H](C)[C@H](NS(=O)(=O)c2ccc(Cl)cc2OC)c2n[nH]c(=O)o2)c1C` had an IC50 of 400 nM.
Take `Cc1ccc(F)c([C@@H](C)[C@H](NS(=O)(=O)c2ccc(Br)c(C#N)c2)c2n[nH]c(=O)o2)c1C`: the IC50 was 640 nM.
With `Cc1ccc(F)c([C@@H](C)[C@H](NS(=O)(=O)c2ccc(Cl)c(C(=O)N3CC4CCC(C3)O4)n2)c2n[nH]c(=O)o2)c1C` the figure was 30 nM; with `Cc1ccc(F)c([C@@H](C)[C@H](NS(=O)(=O)c2ccc(C(F)(F)F)cc2C(N)=O)c2n[nH]c(=O)o2)c1C`, 100 nM.
Regarding `Cc1ccc(F)c([C@@H](C)[C@H](NS(=O)(=O)c2c(Cl)cc(Cl)cc2C(N)=O)c2n[nH]c(=O)o2)c1C`, the IC50 came to 420 nM.
For the compound `COc1ccc(-c2cc(S(=O)(=O)N[C@H](c3n[nH]c(=O)o3)[C@H](C)c3c(F)ccc(C)c3C)ccc2Cl)cc1`, it took 720 nM to reach half-maximal inhibition (IC50).
Next, `Cc1cccc([C@@H](C)[C@H](NS(=O)(=O)c2ccc(Cl)cc2C(N)=O)c2n[nH]c(=O)o2)c1C`: 300 nM.
In turn, `C[C@H](c1cccc2c1CCC2)[C@H](NS(=O)(=O)c1ccc(Cl)c(C(C)(C)O)n1)c1n[nH]c(=O)o1` returned a half-inhibitory concentration (IC50) of 440 nM.
With `COC(=O)c1cc(S(=O)(=O)N[C@H](c2n[nH]c(=S)o2)[C@H](C)c2cccc3c2CCC3)ccc1Cl`, 830 nM corresponded to half-maximal inhibition (IC50).
`COC(=O)c1c(Cl)ccc(S(=O)(=O)N[C@H](c2n[nH]c(=S)o2)[C@H](C)c2cccc3c2CCC3)c1Cl` had an IC50 of 310 nM.
Consider `Cc1ccc(F)c([C@@H](C)[C@H](NS(=O)(=O)c2ccc(Cl)c3cccnc23)c2n[nH]c(=O)o2)c1C`, for which 110 nM corresponded to half-maximal inhibition (IC50).
Compound `Cc1ccc(F)c([C@@H](C)[C@H](NS(=O)(=O)c2ccccc2C(=O)NO)c2n[nH]c(=O)o2)c1C` had an IC50 of 310 nM.
Regarding `Cc1ccc(F)c([C@@H](C)[C@H](NS(=O)(=O)c2ccc(F)c(S(C)(=O)=O)c2)c2n[nH]c(=O)o2)c1C`, it took 190 nM to reach half-maximal inhibition (IC50).
Turning to `Cc1ccc(F)c([C@@H](C)[C@H](NS(=O)(=O)c2ncc(Cl)cc2C(N)=O)c2n[nH]c(=O)o2)c1C`, the IC50 stood at 40 nM.
Take `Cc1ccc(F)c([C@@H](C)[C@H](NS(=O)(=O)c2ccc(C#N)cc2)c2n[nH]c(=O)o2)c1C`: the IC50 amounted to 410 nM.
`Cc1ccc(F)c([C@@H](C)[C@H](NS(=O)(=O)c2ccc(Cl)cc2C(N)=O)c2n[nH]c(=O)o2)c1Cl` gave an IC50 of 500 nM.
Consider `CC(=O)Nc1cc(Cl)ccc1S(=O)(=O)N[C@H](c1n[nH]c(=O)o1)[C@H](C)c1c(F)ccc(C)c1C`, for which the midpoint of inhibition, the IC50, lay at 440 nM.
With `C[C@H](c1cccc2c1CCCC2)[C@H](NS(=O)(=O)c1ccc(N)cc1)c1n[nH]c(=O)o1` the figure was 850 nM; with `Cc1ccc(F)c([C@@H](C)[C@H](NS(=O)(=O)c2ccc(Cl)c(-c3nnn[nH]3)c2)c2n[nH]c(=O)o2)c1C`, 280 nM.
Next, `Cc1ccc(F)c([C@@H](C)[C@H](NS(=O)(=O)c2cc([N+](=O)[O-])c(Cl)cc2C(N)=O)c2n[nH]c(=O)o2)c1C`: 130 nM; `C[C@H](c1cccc2ccccc12)[C@H](NS(=O)(=O)c1ccc(Cl)cc1Cl)c1n[nH]c(=O)o1`: 840 nM; `COc1cc(Cl)ccc1S(=O)(=O)N[C@H](c1n[nH]c(=O)o1)[C@H](C)c1c(F)ccc(-c2cnc3c(c2)OCCN3C)c1C`: 220 nM.
As for `Cc1cccc([C@@H](C)[C@H](NS(=O)(=O)c2ccc(Cl)c3c2OCC=C3)c2n[nH]c(=O)o2)c1C`, the IC50 came to 790 nM.
Compound `Cc1ccc(F)c([C@@H](C)[C@H](NS(=O)(=O)c2ccc(F)c(C(C)(C)O)c2F)c2n[nH]c(=O)o2)c1C` yielded an IC50 of 90 nM.
Compound `Cc1ccc(F)c([C@@H](C)[C@H](NS(=O)(=O)c2ccc3c(c2)C(C)(O)CCC3)c2n[nH]c(=O)o2)c1C` (stereo partly drawn) displayed an IC50 of 360 nM.
The compound `COc1cc(Cl)ccc1S(=O)(=O)N[C@H](c1n[nH]c(=O)o1)[C@H](C)c1c(F)ccc(C#N)c1C` came in with an IC50 of 840 nM.
`Cc1ccc(F)c([C@@H](C)[C@H](NS(=O)(=O)c2cc(C(=O)N(C)C)c(Cl)cc2C(N)=O)c2n[nH]c(=O)o2)c1C` returned an IC50 of 40 nM.
For `CC(=O)OC1(C)CCOc2c(S(=O)(=O)N[C@H](c3n[nH]c(=O)o3)[C@H](C)c3c(F)ccc(Cl)c3C)ccc(Cl)c21` (stereo partly drawn), the IC50 was determined as 300 nM.
With `CC(=O)NC1CCOc2c(S(=O)(=O)N[C@H](c3n[nH]c(=O)o3)[C@H](C)c3c(F)ccc(C)c3C)ccc(Cl)c21` (stereo partly drawn), the IC50 was 100 nM.
As for `C[C@H](c1cccc2c1CCC2)[C@H](NS(=O)(=O)c1ccc(Br)cc1F)c1n[nH]c(=O)o1`, the IC50 turned out to be 990 nM.
With `CNC(=O)c1cc(Cl)ccc1S(=O)(=O)N[C@H](c1n[nH]c(=O)o1)[C@H](C)c1c(F)ccc(C)c1C` the figure was 370 nM.
With `Cc1ccc(F)c([C@@H](C)[C@H](NS(=O)(=O)c2ccc(Br)cc2C(N)=O)c2n[nH]c(=O)o2)c1C` the figure was 60 nM.
Take `Cc1ccc(F)c([C@@H](C)[C@H](NS(=O)(=O)c2ccc(Cl)c(C(=O)N3CCOCC3)n2)c2n[nH]c(=O)o2)c1C`: inhibition was half-maximal at 60 nM (IC50).
Next, `COc1cc(N)ccc1S(=O)(=O)N[C@H](c1n[nH]c(=O)o1)[C@H](C)c1cccc2cccc(C)c12`: 510 nM.
Consider `Cc1ccc(F)c([C@@H](C)[C@H](NS(=O)(=O)c2cc(C(C)(C)O)c(Cl)cc2C(N)=O)c2n[nH]c(=O)o2)c1C`, for which the IC50 was determined as 60 nM.
Regarding `C[C@H](c1c(F)ccc2ccccc12)[C@H](NS(=O)(=O)c1ccc(Cl)c2c1OCCC2F)c1n[nH]c(=O)o1` (stereo partly drawn), the IC50 was 160 nM.
`Cc1cc(S(=O)(=O)N[C@H](c2n[nH]c(=O)o2)[C@H](C)c2c(F)ccc(C)c2C)c(C(N)=O)cc1Cl`: the IC50 amounted to 100 nM.
As to `Cc1ccc(F)c([C@@H](C)[C@H](NS(=O)(=O)c2ccc(Cl)cc2C(=O)N2CCC2)c2n[nH]c(=O)o2)c1C`, the IC50 worked out at 410 nM.
As to `CCc1ccc(F)c([C@@H](C)[C@H](NS(=O)(=O)c2ccc(Br)cc2C(N)=O)c2n[nH]c(=O)o2)c1C`, the IC50 came to 100 nM.
As for `Cc1c(Br)ccc(F)c1[C@@H](C)[C@H](NS(=O)(=O)c1ccc(Cl)c2c1OCCC2(C)N)c1n[nH]c(=O)o1` (stereo partly drawn), 60 nM corresponded to half-maximal inhibition (IC50).
In the case of `Cc1c(C2CC2)ccc(F)c1[C@@H](C)[C@H](NS(=O)(=O)c1ccc(Cl)cc1C(N)=O)c1n[nH]c(=O)o1`, the IC50 is 160 nM.
Take `COc1ccc(-c2ccc(F)c([C@@H](C)[C@H](NS(=O)(=O)c3ccc(Cl)cc3OC)c3n[nH]c(=O)o3)c2C)cc1`: the IC50 was determined as 300 nM.
Compound `COc1ccc(-c2ccc(F)c([C@@H](C)[C@H](NS(=O)(=O)c3ccc(Cl)cc3OC)c3n[nH]c(=O)o3)c2C)cn1` displayed an IC50 of 260 nM.
As to `COC(=O)c1cc(Cl)c(N)cc1S(=O)(=O)N[C@H](c1n[nH]c(=O)o1)[C@H](C)c1c(F)ccc(C)c1C`, the IC50 stood at 660 nM.
`COC(=O)c1nc(S(=O)(=O)N[C@H](c2n[nH]c(=O)o2)[C@H](C)c2c(F)ccc(C)c2C)ccc1Cl` came in with an IC50 of 60 nM.
For the compound `Cc1ccc(F)c([C@@H](C)[C@H](NS(=O)(=O)c2cc(F)c(Cl)cc2C(N)=O)c2n[nH]c(=O)o2)c1C`, the IC50 is 120 nM.
Compound `Cc1c(Br)ccc(F)c1[C@@H](C)[C@H](NS(=O)(=O)c1ccc(Cl)c2c1OCCC2=O)c1n[nH]c(=O)o1` came in with an IC50 of 90 nM.

Broadly, the IC50 is the concentration that inhibits the measured activity by half.

The record behind these values is ChEMBL document CHEMBL5729675, “Sulfonamide compound or salt thereof” (2023).
